In patent publication US10004701B2, “Methods and compositions for treating infection” (UNIVERSITY OF ROCHESTER, priority 2012, dated 2018):
Where two headings read alike, the source gives them in different places.

Legend:
Experiment in all cases: AK assay 384-well format, Prestwick library screening
[1] = test system: E. cloacae; assay type: cell-based, Enterobacter cloacae; conditions: 50 μM final drug concentration; for fold induction at 50 µM: Enterobacter cloacae, 3 h
[2] = test system: A. baumannii strain 98-37-09; assay type: cell-based, Acinetobacter baumannii; conditions: 50 μM final drug concentration; for fold induction at 50 µM: Acinetobacter baumannii, 983709, 3 h
[3] = test system: E. coli; assay type: cell-based, Escherichia coli; conditions: 50 μM final drug concentration; for fold induction at 50 µM: Escherichia coli, 3 h
[4] = test system: E. faecium; assay type: cell-based, Enterococcus faecium; conditions: 50 μM final drug concentration; for fold induction at 50 µM: Enterococcus faecium, 3 h
[5] = test system: K. pneumoniae; assay type: cell-based, Klebsiella pneumoniae; conditions: 50 μM final drug concentration; for fold induction at 50 µM: Klebsiella pneumoniae, 3 h
[6] = test system: P. aeruginosa; assay type: cell-based, Pseudomonas aeruginosa; conditions: 50 μM final drug concentration; for fold induction at 50 µM: Pseudomonas aeruginosa, 3 h
[7] = test system: S. aureus strain USA300-0114; assay type: cell-based, Staphylococcus aureus; conditions: 50 μM final drug concentration; for fold induction at 50 µM: Staphylococcus aureus, USA300, 3 h
[8] = planktonic, cutoff for positive-scoring molecules 3-fold increase, read-out: AK-based Prestwick Library Screening Results, E. cloacae (fold increase in extracellular AK activity)
[9] = planktonic, cutoff for positive-scoring molecules 3-fold increase, read-out: AK-based Prestwick Library Screening Results, A. baumannii (fold increase in extracellular AK activity)
[10] = planktonic, cutoff for positive-scoring molecules 3-fold increase, read-out: AK-based Prestwick Library Screening Results, E. coli (fold increase in extracellular AK activity)
[11] = planktonic, cutoff for positive-scoring molecules 3-fold increase, read-out: AK-based Prestwick Library Screening Results, E. faecium (fold increase in extracellular AK activity)
[12] = planktonic, cutoff for positive-scoring molecules 3-fold increase, read-out: AK-based Prestwick Library Screening Results, K. pneumoniae (fold increase in extracellular AK activity)
[13] = planktonic, cutoff for positive-scoring molecules 3-fold increase, read-out: AK-based Prestwick Library Screening Results, P. aeruginosa (fold increase in extracellular AK activity)
[14] = planktonic, cutoff for positive-scoring molecules 3-fold increase, read-out: AK-based Prestwick Library Screening Results, S. aureus (fold increase in extracellular AK activity)
[15] = planktonic E. cloacae, cutoff for positive-scoring molecules 3-fold increase, read-out: AK-based Prestwick Library Screening Results, E. cloacae (increase in extracellular AK activity)
[16] = planktonic A. baumannii, cutoff for positive-scoring molecules 3-fold increase, read-out: AK-based Prestwick Library Screening Results, A. baumannii (increase in extracellular AK activity)
[17] = planktonic E. coli, cutoff for positive-scoring molecules 3-fold increase, read-out: AK-based Prestwick Library Screening Results, E. coli (increase in extracellular AK activity)
[18] = planktonic E. faecium, cutoff for positive-scoring molecules 3-fold increase, read-out: AK-based Prestwick Library Screening Results, E. faecium (increase in extracellular AK activity)
[19] = planktonic K. pneumoniae, cutoff for positive-scoring molecules 3-fold increase, read-out: AK-based Prestwick Library Screening Results, K. pneumoniae (increase in extracellular AK activity)
[20] = planktonic P. aeruginosa, cutoff for positive-scoring molecules 3-fold increase, read-out: AK-based Prestwick Library Screening Results, P. aeruginosa (increase in extracellular AK activity)
[21] = planktonic S. aureus, cutoff for positive-scoring molecules 3-fold increase, read-out: AK-based Prestwick Library Screening Results, S. aureus (increase in extracellular AK activity)
[22] = planktonic E. cloacae, cutoff for positive-scoring molecules 3-fold increase
[23] = planktonic A. baumannii, cutoff for positive-scoring molecules 3-fold increase
[24] = planktonic E. faecium, cutoff for positive-scoring molecules 3-fold increase
[25] = planktonic K. pneumoniae, cutoff for positive-scoring molecules 3-fold increase
[26] = planktonic P. aeruginosa, cutoff for positive-scoring molecules 3-fold increase
[27] = planktonic S. aureus, cutoff for positive-scoring molecules 3-fold increase

`CC(=O)Nc1cc2ccccc2oc1=O` [Compound 3-Acetamidocoumarin, 3-Acetamidocoumarin] was tested, and the fold induction at 50 µM ([1]; cutoff for positive-scoring molecules 3-fold increase, read-out: AK-based Prestwick Library Screening Results, E. cloacae (fold increase in extracellular AK activity)) was 0.4, the fold induction at 50 µM ([2]; cutoff for positive-scoring molecules 3-fold increase, read-out: AK-based Prestwick Library Screening Results, A. baumannii (fold increase in extracellular AK activity)) was 0.4 and the fold induction at 50 µM ([3]; cutoff for positive-scoring molecules 3-fold increase, read-out: AK-based Prestwick Library Screening Results, E. coli (fold increase in extracellular AK activity)) was 0.5. The fold induction at 50 µM ([4]; cutoff for positive-scoring molecules 3-fold increase, read-out: AK-based Prestwick Library Screening Results, E. faecium (fold increase in extracellular AK activity)) was 0.8, the fold induction at 50 µM ([5]; cutoff for positive-scoring molecules 3-fold increase, read-out: AK-based Prestwick Library Screening Results, K. pneumoniae (fold increase in extracellular AK activity)) was 0.4 and the fold induction at 50 µM ([6]; cutoff for positive-scoring molecules 3-fold increase, read-out: AK-based Prestwick Library Screening Results, P. aeruginosa (fold increase in extracellular AK activity)) was 0.4. For the same compound, the fold induction at 50 µM ([7]; cutoff for positive-scoring molecules 3-fold increase, read-out: AK-based Prestwick Library Screening Results, S. aureus (fold increase in extracellular AK activity)) was 0.4.
`CC(=O)c1cc2ccccc2oc1=O` [Compound 3-Acetylcoumarin, 3-Acetylcoumarin] gave a fold induction at 50 µM [1, 8] of 1.1, a fold induction at 50 µM [2, 9] of 0.8 and a fold induction at 50 µM [3, 10] of 0.7. The fold induction at 50 µM [4, 11] was 0.9, the fold induction at 50 µM [5, 12] was 0.6 and the fold induction at 50 µM [6, 13] was 0.8. The fold induction at 50 µM [7, 14] was 0.6.
`c1coc(CNc2ncnc3nc[nH]c23)c1` [Compound 6-Furfurylaminopurine, 6-Furfurylaminopurine] gave a fold induction at 50 µM [1, 8] of 0.9, a fold induction at 50 µM [2, 9] of 0.7 and a fold induction at 50 µM [3, 10] of 0.7. It also gave a fold induction at 50 µM [4, 11] of 0.9, a fold induction at 50 µM [5, 12] of 0.5 and a fold induction at 50 µM [6, 13] of 0.7. For the same compound, the fold induction at 50 µM [7, 14] was 0.6.
`CN1C2CC(=O)CC1C(O)C2` (stereo not shown) [Compound 6-Hydroxytropinone] was tested, and the “AK-based Prestwick Library Screening Results, E. cloacae (fold increase in extracellular AK activity)” value ([1]; […]) was 0.4, the “AK-based Prestwick Library Screening Results, A. baumannii (fold increase in extracellular AK activity)” value ([2]; […]) was 0.5 and the “AK-based Prestwick Library Screening Results, E. coli (fold increase in extracellular AK activity)” value ([3]; […]) was 0.5. For the same compound, the “AK-based Prestwick Library Screening Results, E. faecium (fold increase in extracellular AK activity)” value ([4]; […]) was 0.9, the “AK-based Prestwick Library Screening Results, K. pneumoniae (fold increase in extracellular AK activity)” value ([5]; […]) was 0.5 and the “AK-based Prestwick Library Screening Results, P. aeruginosa (fold increase in extracellular AK activity)” value ([6]; […]) was 0.4. For the same compound, the “AK-based Prestwick Library Screening Results, S. aureus (fold increase in extracellular AK activity)” value ([7]; […]) was 0.4.
`CNc1ncnc2c1ncn2[C@@H]1O[C@H](CO)[C@@H](O)[C@H]1O` [Compound N6-methyladenosine, N6-methyladenosine] gave a fold induction at 50 µM [1, 15] of 0.7, a fold induction at 50 µM [2, 16] of 0.6 and a fold induction at 50 µM [3, 17] of 0.6. It also gave a fold induction at 50 µM [4, 18] of 0.9, a fold induction at 50 µM [5, 19] of 0.5 and a fold induction at 50 µM [6, 20] of 0.6. It also gave a fold induction at 50 µM [7, 21] of 0.5.
Work on `CCN1C[C@]2(COC)CC[C@H](O)[C@@]34C5C[C@@H]6[C@@H](OC)C[C@](O)(C(CC23)C14)C5[C@H]6OC(C)=O` (stereo partly shown) [Condelphine] yielded a fold induction at 50 µM ([1]; planktonic E. cloacae, […], read-out: AK-based Prestwick library screening result, E. cloacae (fold increase in extracellular AK activity)) of 1.2, a fold induction at 50 µM ([2]; planktonic A. baumannii, […], read-out: AK-based Prestwick library screening result, A. baumannii (fold increase in extracellular AK activity)) of 1.1 and a fold induction at 50 µM ([3]; planktonic E. coli, […], read-out: AK-based Prestwick library screening result, E. coli (fold increase in extracellular AK activity)) of 1.1. It also gave a fold induction at 50 µM ([4]; planktonic E. faecium, […], read-out: AK-based Prestwick library screening result, E. faecium (fold increase in extracellular AK activity)) of 1.1, a fold induction at 50 µM ([5]; planktonic K. pneumoniae, […], read-out: AK-based Prestwick library screening result, K. pneumoniae (fold increase in extracellular AK activity)) of 1 and a fold induction at 50 µM ([6]; planktonic P. aeruginosa, […], read-out: AK-based Prestwick library screening result, P. aeruginosa (fold increase in extracellular AK activity)) of 1. For the same compound, the fold induction at 50 µM ([7]; planktonic S. aureus, […], read-out: AK-based Prestwick library screening result, S. aureus (fold increase in extracellular AK activity)) was 1.1.
Compound `C[C@H]1[C@H]2CC[C@H]3[C@@H]4CC=C5C[C@@H](N(C)C)CC[C@]5(C)[C@H]4CC[C@]23CN1C` [Conessine] has a fold induction at 50 µM ([1]; planktonic, cutoff for positive 3-fold increase, read-out: AK-based Prestwick Library Screening Results, E. cloacae (fold increase in extracellular AK activity)) of 1.6, a fold induction at 50 µM ([2]; planktonic, cutoff for positive 3-fold increase, read-out: AK-based Prestwick Library Screening Results, A. baumannii (fold increase in extracellular AK activity)) of 1.4 and a fold induction at 50 µM ([3]; planktonic, cutoff for positive 3-fold increase, read-out: AK-based Prestwick Library Screening Results, E. coli (fold increase in extracellular AK activity)) of 1.5. It also gave a fold induction at 50 µM ([4]; planktonic, cutoff for positive 3-fold increase, read-out: AK-based Prestwick Library Screening Results, E. faecium (fold increase in extracellular AK activity)) of 1.1, a fold induction at 50 µM ([5]; planktonic, cutoff for positive 3-fold increase, read-out: AK-based Prestwick Library Screening Results, K. pneumoniae (fold increase in extracellular AK activity)) of 1.2 and a fold induction at 50 µM ([6]; planktonic, cutoff for positive 3-fold increase, read-out: AK-based Prestwick Library Screening Results, P. aeruginosa (fold increase in extracellular AK activity)) of 1.2. The fold induction at 50 µM ([7]; planktonic, cutoff for positive 3-fold increase, read-out: AK-based Prestwick Library Screening Results, S. aureus (fold increase in extracellular AK activity)) was 1.2.
`COc1ccc(C(=O)OC2C[C@H]3CC[C@@H](C2)N3C)cc1OC.Cl` (stereo partly shown) [Convolamine hydrochloride] was tested, and the “AK-based Prestwick Library Screening Results, E. cloacae (increase in extracellular AK activity)” value [1, 22] was 1.3, the “AK-based Prestwick Library Screening Results, A. baumannii (increase in extracellular AK activity)” value [2, 23] was 1.0 and the “AK-based Prestwick Library Screening Results, E. coli (increase in extracellular AK activity)” value ([3]; planktonic E. coli, cutoff for positive-scoring molecules 3-fold increase) was 1.1. The “AK-based Prestwick Library Screening Results, E. faecium (increase in extracellular AK activity)” value [4, 24] was 0.9, the “AK-based Prestwick Library Screening Results, K. pneumoniae (increase in extracellular AK activity)” value [5, 25] was 0.7 and the “AK-based Prestwick Library Screening Results, P. aeruginosa (increase in extracellular AK activity)” value [6, 26] was 0.8. The “AK-based Prestwick Library Screening Results, S. aureus (increase in extracellular AK activity)” value [7, 27] was 0.6.
For `COc1cc2cc3c4cc(OC)c(OC)cc4cc[n+]3c(C)c2cc1OC.O.[Cl-]` [Coralyne chloride hydrate], the “AK-based Prestwick Library Screening Results, E. cloacae (increase in extracellular AK activity)” value [1, 22] was 1.1, the “AK-based Prestwick Library Screening Results, A. baumannii (increase in extracellular AK activity)” value [2, 23] was 0.8 and the “AK-based Prestwick Library Screening Results, E. coli (increase in extracellular AK activity)” value ([3]; planktonic E. coli, […]) was 0.9. For the same compound, the “AK-based Prestwick Library Screening Results, E. faecium (increase in extracellular AK activity)” value [4, 24] was 0.9, the “AK-based Prestwick Library Screening Results, K. pneumoniae (increase in extracellular AK activity)” value [5, 25] was 0.6 and the “AK-based Prestwick Library Screening Results, P. aeruginosa (increase in extracellular AK activity)” value [6, 26] was 0.8. The “AK-based Prestwick Library Screening Results, S. aureus (increase in extracellular AK activity)” value [7, 27] was 0.4.
`C[C@]12C[C@H](O)[C@H]3[C@@H](CCC4=CC(=O)CC[C@@]43C)[C@@H]1CC[C@@H]2C(=O)CO` [Corticosterone] was tested, and the fold induction at 50 µM [1, 15] was 1.2, the fold induction at 50 µM [2, 16] was 0.9 and the fold induction at 50 µM [3, 17] was 0.9. The fold induction at 50 µM [4, 18] was 0.9, the fold induction at 50 µM [5, 19] was 0.7 and the fold induction at 50 µM [6, 20] was 0.8. The fold induction at 50 µM [7, 21] was 0.6.
